Source: ChEMBL document CHEMBL1201862, “PubChem BioAssay data set” (2004)
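Briefly, cells in 96-well plates were exposed to five compound concentrations for 48 h, and endpoints were estimated by linear interpolation. Here, GI50 denotes the concentration required for 50% inhibition of growth.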 The source made the active and inactive calls. No stated cut-off is given here; in the data, active = GI50 up to about 1.1 µM and inactive = higher.

Columns and labels:
Experiment in all cases: DTP human tumour cell line panel, 48 h
SR = test system: SR
SW-620 = test system: SW-620
NCI/ADR-RES = test system: NCI/ADR-RES
U-251 = test system: U-251
SF-539 = test system: SF-539
SNB-19 = test system: SNB-19
SK-MEL-28 = test system: SK-MEL-28
HL-60 = test system: HL-60
UO-31 = test system: UO-31
SF-295 = test system: SF-295
HOP-62 = test system: HOP-62
MCF7 = test system: MCF7
SNB-75 = test system: SNB-75
SK-OV-3 = test system: SK-OV-3
LOX IMVI = test system: LOX IMVI
NCI-H460 = test system: NCI-H460
OVCAR-3 = test system: OVCAR-3
EKVX = test system: EKVX
UACC-62 = test system: UACC-62
HOP-92 = test system: HOP-92

SMILES	GI50 (SR)	GI50 (SW-620)	GI50 (NCI/ADR-RES)	GI50 (U-251)	GI50 (SF-539)	GI50 (SNB-19)	GI50 (SK-MEL-28)	GI50 (HL-60)	GI50 (UO-31)	GI50 (SF-295)	GI50 (HOP-62)	GI50 (MCF7)	GI50 (SNB-75)	GI50 (SK-OV-3)	GI50 (LOX IMVI)	GI50 (NCI-H460)	GI50 (OVCAR-3)	GI50 (EKVX)	GI50 (UACC-62)	GI50 (HOP-92)
O=c1c(O)c(-c2cc(O)c(O)cc2O)oc2cc(O)c(C3OC(CO)C(O)C(O)C3O)c(O)c12 (stereo not drawn)	> 100 µM (inactive)	> 100 µM (inactive)	> 100 µM (inactive)	> 100 µM (inactive)	> 100 µM (inactive)	> 100 µM (inactive)	> 100 µM (inactive)	> 100 µM (inactive)	> 100 µM (inactive)	> 100 µM (inactive)	> 100 µM (inactive)	> 100 µM (inactive)	45.1 µM (inactive)	> 100 µM (inactive)	> 100 µM (inactive)	> 100 µM (inactive)	> 100 µM (inactive)	> 100 µM (inactive)	> 100 µM (inactive)	> 100 µM (inactive)
COc1ccc2nc3c([N+](=O)[O-])ccc(NCCCN(C)C)c3c(N)c2c1	0.721 µM (active)	0.405 µM (active)	1.64 µM (inactive)	1.57 µM (inactive)	1.78 µM (inactive)	2.01 µM (inactive)	1.62 µM (inactive)	1.61 µM (inactive)	2.14 µM (inactive)	1.37 µM (inactive)	1.78 µM (inactive)	1.15 µM (inactive)	1.66 µM (inactive)	1.45 µM (inactive)	1.59 µM (inactive)	1.21 µM (inactive)	1.49 µM (inactive)	1.74 µM (inactive)	1.82 µM (inactive)	1.87 µM (inactive)
O=P1(N(CCCl)CCCl)Oc2c(Cl)cc(Cl)c(Cl)c2Cc2c(Cl)c(Cl)cc(Cl)c2O1	35.2 µM (inactive)	47.4 µM (inactive)	45 µM (inactive)	96.6 µM (inactive)	> 100 µM (inactive)		> 100 µM (inactive)	> 100 µM (inactive)	48.4 µM (inactive)	22.7 µM (inactive)	64 µM (inactive)	64.7 µM (inactive)	> 100 µM (inactive)	43.2 µM (inactive)	39.8 µM (inactive)	25.2 µM (inactive)	45.2 µM (inactive)	92.3 µM (inactive)	48.3 µM (inactive)	24.5 µM (inactive)
CC(=O)OCC1OC(n2c3c(cc(C#N)c2=S)CCCCC3)C(OC(C)=O)C(OC(C)=O)C1OC(C)=O (stereo not drawn)	> 100 µM (inactive)		> 100 µM (inactive)	> 100 µM (inactive)	> 100 µM (inactive)	> 100 µM (inactive)	> 100 µM (inactive)	> 100 µM (inactive)	> 100 µM (inactive)	> 100 µM (inactive)	> 100 µM (inactive)	> 100 µM (inactive)	99.1 µM (inactive)		> 100 µM (inactive)	> 100 µM (inactive)	> 100 µM (inactive)		93.8 µM (inactive)	> 100 µM (inactive)
COc1cc(Oc2nc3ccc(C(F)(F)F)cc3nc2-c2ccccc2)cc(OC)c1OC	34 µM (inactive)	> 10 µM (inactive)	> 100 µM (inactive)	13 µM (inactive)	19.7 µM (inactive)		33.9 µM (inactive)	31.8 µM (inactive)	> 100 µM (inactive)	9.48 µM (inactive)	11 µM (inactive)	8.18 µM (inactive)	8.75 µM (inactive)	12.4 µM (inactive)	18.4 µM (inactive)	34 µM (inactive)	27.5 µM (inactive)	37.8 µM (inactive)	11 µM (inactive)	14.5 µM (inactive)
Cc1c(-c2ccccc2)c(C#N)c2nnn(-c3cccc(Cl)c3)c(=O)n12	12.6 µM (inactive)	46.8 µM (inactive)	> 100 µM (inactive)	68.4 µM (inactive)	32.9 µM (inactive)		> 100 µM (inactive)	> 100 µM (inactive)		39.6 µM (inactive)	37.2 µM (inactive)	43.9 µM (inactive)	31.2 µM (inactive)	37.8 µM (inactive)	87.1 µM (inactive)	> 100 µM (inactive)	43 µM (inactive)	33.1 µM (inactive)	> 100 µM (inactive)	44.9 µM (inactive)
O=C1c2ccccc2-c2ccc(NC(=O)C3CCCCC3C(=O)O)cc21 (stereo not drawn)	> 100 µM (inactive)	> 100 µM (inactive)	> 100 µM (inactive)	> 100 µM (inactive)	> 100 µM (inactive)	> 100 µM (inactive)	> 100 µM (inactive)	> 100 µM (inactive)	> 100 µM (inactive)	> 100 µM (inactive)	> 100 µM (inactive)	85.5 µM (inactive)	> 100 µM (inactive)	> 100 µM (inactive)	> 100 µM (inactive)	> 100 µM (inactive)	> 100 µM (inactive)	> 100 µM (inactive)	> 100 µM (inactive)	> 100 µM (inactive)
